Test results reported in US6429204B1, “Method of inhibiting cancer growth” (University of Miami, priority 1997, dated 2002).

Assays:
Gelatinase B = molecular target: T1, Gelatinase B (Homo sapiens, UniProt P14780); assay: Zymography with densitometry of C8161 conditioned medium, gelatinase B; type: cell-based; details: 50 μg/mL, 24 hr
T1 construct: endogenous in cells; host or cells: C8161
Protocol: Six hundred thousand (6×10^5) C8161 cells were seeded per well in a 12-well dish coated with a laminin/collagen IV/gelatin matrix in DMEM plus Mito+ and 0.1% gentamicin sulfate. After approximately 1 hr incubation to allow the cells to attach, 50 μg/mL of either doxycycline or one of the other CMTs was added per well and the dish then placed in a 37° C. humidified 5% CO2 incubator. After 24 hr, the supernatants were removed and centrifuged to remove any cells or debris. One volume of Laemmli sample buffer minus reductant was added to two volumes of the medium, and this sample electrophoresed without prior heating or boiling on a 10% SDS-PAGE containing 0.1% gelatin (samples normalized based on the same number of cells per volume of medium per time of incubation). After electrophoresis, the gels were washed with gentle shaking at room temperature for 30 min in 50 mM Tris-HCl (pH 7.5) plus 2.5% TRITON® X100 plus 50 μg/mL of the corresponding CMT used in the original treatment. The gel was then placed in incubation buffer (50 mM Tris-Cl/10 mM CaCl2/150 mM NaCl/0.05% NaN3) also containing 50 μg/mL of the corresponding CMT, and incubated at 37° C. for 20-24 hr. The gels were stained with Coomassie BBR-250, then destained with 10% methanol/10% acetic acid in water until the wash remained clear. A photographic negative of the gel was digitized using a video camera and Snappy Video Snapshot system (Play Inc., Rancho Cordova, Calif.). An integrated density was determined for each of the cleared zones of proteolysis using the software ImagePC8α (freely available from the National Institutes of Health), and the corresponding changes in gelatinolytic activities reported compared to the control samples normalized to a value of 1.0.

C8161 cells = assay: In vivo metastasis assay, C8161 cells i.v. in SCID mice; details: for Number of Lung Metastases/Mouse: Average ± SEM, control 231 ± 49
Protocol: Immunosuppressed mice (athymic nude/nude SCID females from Harlan Sprague Dawley) were housed in autoclaved cages with microisolator tops, and all manipulations of the animals were done in a laminar flow hood after wiping down both the hood, gloves and cages with ABQ sterilant. The mice were fed sterile Pico Lab Chow (Purina) and autoclaved St. Louis tap water. […] The compounds and control (sterile water plus 2% carboxymethyl cellulose) were kept stored at −80° C. wrapped in aluminum foil to prevent any light induced changes, and each day's supply was thawed just prior to use. Four compounds were tested for their effects on the metastatic potential of C8161 cells injected intravenously via the tail vein: […] The concentration of the compounds in the vials used to give the 100 mg/kg doses were 2.5 times that in the 40 mg/kg dose so that approximately the same volume was used in both cases, approximately 0.5 mL/animal. The experiments started with nine animals per group at day −4. On day zero, 2×10^5 C8161 cells in cold Hank's Balanced Salt Solution (HBSS) were injected intravenously via tail vein inoculation. The experiment was continued for an additional 24 days, at which time the animals were sacrificed and their lungs removed and fixed in a solution of Bouins/formaldehyde (5 parts:1 part). Tumors were quantitated on the entire surface of the lungs by rotating the lungs and counting the tumors on each lobe using a 6× magnifying glass. Statistical analysis was performed using the statistical package of Microsoft's Excel spreadsheet software.

[1] = system: normal prostate stromal cells; assay: Alamar Blue viability assay, normal prostate stromal cells; type: cell-based, human
Text: Several cancer cell lines and normal cells were examined in vitro to determine whether tetracycline compounds produce cytotoxic (cell killing) effects. A conventional assay for viability of cultured cells based on redox activity in the cells was employed (Pagé et al. 1993). The assay uses a redox dye Alamar Blue, which is a fluorogenic indicator dye that is converted to a fluorescent red product only when cells are carrying out electron transport activity, a widely accepted criterion of viability.
Cultured cells from three prostate tumor cell lines, LNCAP, DU-145, and PC-3, and normal prostate stromal cells obtained by biopsy of a normal person, were allowed to grow to confluence in multiwell microplates to minimize differences in proliferative activity among the cell types at the time of exposure to the test compound. […] At the start of the experiment, and again at 1, 2, and 3 days, selected wells were incubated with the indicator dye for 3 hr, and the fluorescence was measured on a Cytofluor 2300 fluorescent microplate reader.

[2] = system: activation of MMPs by p-aminophenyl mercuric acetate; assay: Inhibition of APMA activation of MMPs in processed conditioned medium; type: biochemical
Protocol: In addition, the ability of doxycycline or CMT-3 to inhibit APMA activation of MMPs was tested. Processed culture-conditioned medium was incubated with the drugs for 1 hr before adding 1 mM APMA, and the incubation was continued thereafter for 2 hr. ^3H-gelatin was then added and the assy was continued for 4 hr. All assays were performed in duplicate tubes, and repeated at least twice.
MMP activity in the culture media was examined at 1 mM and 10 mM CaCl2, with no change in [Zn^2+] in the assay buffer. We employed 1 mM CaCl2, as this concentration is closer to physiological concentration, and 10 mM CaCl2, as it is reported to be the optimum concentration in in vitro assays (Woessner 1991). As is shown in Table 2, both CMT-3 and doxycycline inhibited in vitro activated gelatinases.

Dunning MAT LyLu cells = assay: Cytotoxic effect on MAT LyLu cells (trypan blue); type: cell-based, rat; details: 24 hr or 48 hr exposure
Protocol: Cell viability was estimated by trypan blue staining following exposure to the drugs. The results of these studies are summarized in FIG. 4A (24 hours) and FIG. 4B (48 hr). Data are presented as Mean±SEM from three separate experiments.

[3] = system: MMP-9 (gelatinase B) expressed by E-10 cells; assay: MMP protein expression by Western blot of conditioned medium, E-10 cells; type: cell-based, human; details: 24 hr, serum-free medium
Protocol: Two human cancer-derived cell lines were obtained from the American Type Culture Collection (ATCC) in Rockville, Md. The cell lines included COLO 205, a human colon cancer-derived cell line that expresses MMP-2 or gelatinase A, and E-10, a human breast cancer-derived cell line that expresses MMP-9 or gelatinase B.
Cells of each cell line were cultured in 75 cm^2 T-flasks in RPMI-1640 (Gibco) with 10% heat-inactivated fetal bovine serum (FBS) containing 100 units/mL penicillin and 100 μg/mL streptomycin. The cells were fed every two days, and passaged every week. The cells were grown to 80-90% confluence, and then the FBS-containing medium was replaced with a serum-free medium (SFM). CMT-3 (CollaGenex Pharmaceuticals, Inc., Newtown, Pa.) was added in several concentrations to the cells in SFM. Conditioned medium was collected after 24 hr, centrifuged to remove cell debris, and then assayed for MMP protein expression by Western blot using a conventional technique, and scanning the blots with a laser densitometer.

T1 sequence (P14780 94-707): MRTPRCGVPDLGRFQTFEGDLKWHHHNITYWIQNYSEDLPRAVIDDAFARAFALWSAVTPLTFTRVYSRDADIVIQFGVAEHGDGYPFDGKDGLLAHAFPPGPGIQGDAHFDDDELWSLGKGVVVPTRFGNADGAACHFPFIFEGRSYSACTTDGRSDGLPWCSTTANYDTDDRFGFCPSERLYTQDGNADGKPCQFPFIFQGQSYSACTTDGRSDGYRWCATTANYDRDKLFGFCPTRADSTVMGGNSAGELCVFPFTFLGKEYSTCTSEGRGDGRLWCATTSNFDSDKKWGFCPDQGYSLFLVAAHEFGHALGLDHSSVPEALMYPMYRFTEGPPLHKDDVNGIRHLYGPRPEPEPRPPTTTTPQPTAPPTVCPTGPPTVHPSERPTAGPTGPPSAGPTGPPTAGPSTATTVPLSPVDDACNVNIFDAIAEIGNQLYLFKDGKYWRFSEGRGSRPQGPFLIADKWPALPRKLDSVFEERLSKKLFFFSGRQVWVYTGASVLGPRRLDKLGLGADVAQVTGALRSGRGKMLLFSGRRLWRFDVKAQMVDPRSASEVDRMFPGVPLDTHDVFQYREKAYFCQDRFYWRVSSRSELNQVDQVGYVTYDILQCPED

## NC(=O)C1=C(O)CC2CC3Cc4cccc(O)c4C(=O)C3=C(O)C2(O)C1=O (stereo not drawn) [CMT-3, 6-demethyl-6-deoxy-4-de(dimethylamino)tetracycline]
Gelatinase B
  Gelatinase B, integrated density normalized to control 1.00: 0.03
C8161 cells; 40 mg/kg daily intragastric
  Number of Lung Metastases/Mouse: 111 ± 105
C8161 cells; 40 mg/kg daily, p<0.05
  effect on number of lung metastases (significance): significantly reduced the number of lung metastases
C8161 cells; 100 mg/kg
  effect on number of lung metastases (significance): did not significantly reduce the number of lung metastases
C8161 cells; 100 mg/kg daily intragastric
  Number of Lung Metastases/Mouse: 176 ± 82
[1]; 10 μM and 20 μM, three-day period
  change in fluorescence (viability): virtually no change in fluorescence
[1]; 50 µM
  cytotoxicity: no comparable cytotoxicity
[2]; 10 mM CaCl2
  IC50, inhibition of activation of MMPs by APMA: 1.0 µg/mL
[2]; 10 mM CaCl2, value in brackets
  IC50: 2.2 µM
Dunning MAT LyLu cells
  inhibition of cell proliferation (rank among tested drugs): most effective inhibitors of cell proliferation
[3]; E-10, MMP-9, 10 μM
  Percent Inhibition of MMP Protein Expression: 45.3%
[3]; E-10, MMP-9, 20 μM
  Percent Inhibition of MMP Protein Expression: 60.8%
